Test results as given in PubChem BioAssay AID1845200 (Molecular Pharmacology Branch, DTP, NCI, 2023).

System: ASPS-1 complex tumor spheroids, viability
Assay: Anticancer human tumor ASPS-1 cell line growth inhibition;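 further: spheroids exposed to agents for 7 days after 3 days of growth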;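 on viability, T/C: 100% = DMSO vehicle treated spheroids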
Conditions: for IC50: curve of first compound; for viability, T/C: stronger effect = lower value; active means viability on the fitted dose curve at most 10% of control; inactive means the rest
How it was run: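 Complex tumor spheroids combined malignant cells with endothelial cells and mesenchymal stem cells. DNA-damaging drugs and DNA repair inhibitors were tested alone and in combination, at half-log dilutions down from clinical Cmax (top 10 microM if Cmax unknown), 0.25% DMSO final.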

[1] = second compound 1 µM, first compound 0.0316 µM
[2] = second compound 1 µM, first compound 0.1 µM
[3] = second compound 1 µM, first compound 0.316 µM
[4] = second compound 1 µM, first compound 1 µM
[5] = second compound 1 µM, first compound 3.16 µM
[6] = second compound 1 µM, first compound 10 µM
[7] = second compound 3.16 µM, first compound 0.0316 µM
[8] = second compound 3.16 µM, first compound 0.1 µM
[9] = second compound 3.16 µM, first compound 0.316 µM
[10] = second compound 3.16 µM, first compound 1 µM
[11] = second compound 3.16 µM, first compound 3.16 µM
[12] = second compound 3.16 µM, first compound 10 µM
[13] = second compound 10 µM, first compound 0.0316 µM
[14] = second compound 10 µM, first compound 0.1 µM
[15] = second compound 10 µM, first compound 0.316 µM
[16] = second compound 10 µM, first compound 1 µM
[17] = second compound 10 µM, first compound 3.16 µM
[18] = second compound 10 µM, first compound 10 µM
[19] = second compound 31.6 µM, first compound 0.0316 µM
[20] = second compound 31.6 µM, first compound 0.1 µM
[21] = second compound 31.6 µM, first compound 0.316 µM
[22] = second compound 31.6 µM, first compound 1 µM
[23] = second compound 31.6 µM, first compound 3.16 µM
[24] = second compound 31.6 µM, first compound 10 µM
[25] = second compound 100 µM, first compound 0.0316 µM
[26] = second compound 100 µM, first compound 0.1 µM
[27] = second compound 100 µM, first compound 0.316 µM
[28] = second compound 100 µM, first compound 1 µM
[29] = second compound 100 µM, first compound 3.16 µM
[30] = second compound 100 µM, first compound 10 µM

Cc1cc(C)c(CNC(=O)c2cc(-c3ccc(CN4CCOCC4)cc3)cc3c2cnn3C2CCCC2)c(=O)[nH]1 + COc1cc2c(cc1O)CCNC21CSC2c3c(OC(C)=O)c(C)c4c(c3C(COC1=O)N1C(O)C3Cc5cc(C)c(OC)c(O)c5C(C21)N3C)OCO4
inactive: viability, T/C (second compound 30 pM, first compound 0.0316 µM) 103% | viability, T/C (second compound 30 pM, first compound 0.1 µM) 97.4% | viability, T/C (second compound 30 pM, first compound 0.316 µM) 102% | viability, T/C (second compound 30 pM, first compound 1 µM) 104% | viability, T/C (second compound 30 pM, first compound 3.16 µM) 96.9% | viability, T/C (second compound 30 pM, first compound 10 µM) 84.4% | viability, T/C (second compound 94.9 pM, first compound 0.0316 µM) 105% | viability, T/C (second compound 94.9 pM, first compound 0.1 µM) 97.8% | viability, T/C (second compound 94.9 pM, first compound 0.316 µM) 98.7% | viability, T/C (second compound 94.9 pM, first compound 1 µM) 99.5% | viability, T/C (second compound 94.9 pM, first compound 3.16 µM) 93.5% | viability, T/C (second compound 94.9 pM, first compound 10 µM) 76.8% | viability, T/C (second compound 0.0003 µM, first compound 0.0316 µM) 92% | viability, T/C (second compound 0.0003 µM, first compound 0.1 µM) 96.2% | viability, T/C (second compound 0.0003 µM, first compound 0.316 µM) 92.8% | viability, T/C (second compound 0.0003 µM, first compound 1 µM) 86.2% | viability, T/C (second compound 0.0003 µM, first compound 3.16 µM) 80.1% | viability, T/C (second compound 0.0003 µM, first compound 10 µM) 63.1% | viability, T/C (second compound 0.000949 µM, first compound 0.0316 µM) 56.8% | viability, T/C (second compound 0.000949 µM, first compound 0.1 µM) 75.2% | viability, T/C (second compound 0.000949 µM, first compound 0.316 µM) 39.9% | viability, T/C (second compound 0.000949 µM, first compound 1 µM) 31.6% | viability, T/C (second compound 0.000949 µM, first compound 3.16 µM) 24.5% | viability, T/C (second compound 0.000949 µM, first compound 10 µM) 9.44% | viability, T/C (second compound 0.003 µM, first compound 0.0316 µM) 13.7%
< 0.0316 µM: IC50 (second compound 0.003 µM)
0.273 µM: IC50 (second compound 0.000949 µM)
active: viability, T/C (second compound 0.003 µM, first compound 0.1 µM) 5.99% | viability, T/C (second compound 0.003 µM, first compound 0.316 µM) 2.02% | viability, T/C (second compound 0.003 µM, first compound 1 µM) 0.27% | viability, T/C (second compound 0.003 µM, first compound 3.16 µM) 0.25% | viability, T/C (second compound 0.003 µM, first compound 10 µM) 0.32%
> 10 µM: IC50 (second compound 30 pM) | IC50 (second compound 94.9 pM) | IC50 (second compound 0.0003 µM)

[2H]c1nc(C)nc([2H])c1-c1cc(NC[C@@H](C)c2cccc3c(C(=O)NC)ccnc23)ncn1 + Cn1nnc2c(C(N)=O)ncn2c1=O
> 10 µM: IC50 (second compound 1 µM) | IC50 (second compound 3.16 µM) | IC50 (second compound 10 µM) | IC50 (second compound 31.6 µM) | IC50 (second compound 100 µM)
inactive: viability, T/C [1] 106% | viability, T/C [2] 100% | viability, T/C [3] 98.3% | viability, T/C [4] 101% | viability, T/C [5] 95.8% | viability, T/C [6] 99.2% | viability, T/C [7] 104% | viability, T/C [8] 104% | viability, T/C [9] 103% | viability, T/C [10] 104% | viability, T/C [11] 101% | viability, T/C [12] 98.3% | viability, T/C [13] 88.4% | viability, T/C [14] 93.2% | viability, T/C [15] 96.4% | viability, T/C [16] 90.1% | viability, T/C [17] 89.5% | viability, T/C [18] 89.7% | viability, T/C [19] 79.8% | viability, T/C [20] 80.2% | viability, T/C [21] 81.1% | viability, T/C [22] 79.7% | viability, T/C [23] 78.3% | viability, T/C [24] 76.4% | viability, T/C [25] 74.2% | viability, T/C [26] 72.5% | viability, T/C [27] 74.5% | viability, T/C [28] 66.5% | viability, T/C [29] 68.4% | viability, T/C [30] 65.8%

Cc1cc(C)c(CNC(=O)c2cc(-c3ccc(CN4CCOCC4)cc3)cc3c2cnn3C2CCCC2)c(=O)[nH]1 + Cn1nnc2c(C(N)=O)ncn2c1=O
> 10 µM: IC50 (second compound 1 µM) | IC50 (second compound 3.16 µM) | IC50 (second compound 10 µM) | IC50 (second compound 31.6 µM) | IC50 (second compound 100 µM)
inactive: viability, T/C [1] 94.8% | viability, T/C [2] 95.4% | viability, T/C [3] 94.8% | viability, T/C [4] 92.7% | viability, T/C [5] 93.2% | viability, T/C [6] 86.7% | viability, T/C [7] 102% | viability, T/C [8] 98.1% | viability, T/C [9] 98.8% | viability, T/C [10] 99.6% | viability, T/C [11] 92% | viability, T/C [12] 91.2% | viability, T/C [13] 86.3% | viability, T/C [14] 77.6% | viability, T/C [15] 88% | viability, T/C [16] 89.3% | viability, T/C [17] 82% | viability, T/C [18] 82% | viability, T/C [19] 81.4% | viability, T/C [20] 83.7% | viability, T/C [21] 77.7% | viability, T/C [22] 87.3% | viability, T/C [23] 73.2% | viability, T/C [24] 69.8% | viability, T/C [25] 69% | viability, T/C [26] 67.5% | viability, T/C [27] 73.4% | viability, T/C [28] 71.3% | viability, T/C [29] 61.3% | viability, T/C [30] 55.3%
